# In US20250082931A1, “Treating Gastric Cancer Using TTFields Combined with XELOX, FOLFOX or the Individual Constituents Thereof” (Novocure GmbH, priority 2019, published 2025):
# Assays:
# AGS cells [1] = test: Clonogenic effect (colonies count); assay type: cell-based; conditions: for colonies count: 72 h
# Experimental: (§1) After 72 h of treatment the media and the cells were collected, and cytotoxicity was determined by cell counts. […] For the testing of the clonogenic effect, cells were seeded for colonies.
# (§2) After 6-14 days the colonies were fixed, stained and counted to determine clonogenic effect. The overall effect was calculated by multiplying the cytotoxic effect and the clonogenic effect.
# (§3) Clonogenic effect: The colonies from each well were counted using ImageJ software. Average and standard deviation of colony number of at least 5 wells from each treatment were calculated in excel software. The averages from these repeats was calculated to averages and standard errors and is presented as percent from control (no drug treatment) in XY graph of points with error bars using GraphPed software. Significant was determine by 2-way ANOVA followed Multiple comparison using GraphPed software.
# KATO III cells = test: Clonogenic effect (colonies count); conditions: for colonies count: 72 h;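 as to all read-outs here: after treatment, KATO III cells were reseeded and grown 6–14 days, then colonies were fixed, stained and counted, expressed as percent of untreated (no drug) control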
# Experimental: as §1, §2, §3
# AGS cells [2] = test: Apoptosis analysis by Annexin V / 7AAD staining; assay type: cell-based; conditions: for AnnV+ 7AAD+ cell fraction / AnnV+ 7AAD− cell fraction / AnnV− 7AAD+ cell fraction / AnnV− 7AAD− cell fraction: 72 h
# Experimental: After 72 h of treatment the media and the cells were collected, and cytotoxicity was determined by cell counts. Cells (including cells from the media) were stained for Annexin V and 7AAD for apoptosis analysis. For the testing of the clonogenic effect, cells were seeded for colonies.
# Cells were seeded on inovitro dishes and petri dishes 24 h before starting the experiments. Media containing the indicated concentration of each chemotherapy component alone or FOLFOX and control media was added to the cells and the dishes were connected to TTFields (as in SOP-BI-009) or grown in 37° C., 5% CO2 for 72 h. Each treatment included 8 repeats (8 dishes). The media was replaced every 24 h. At the end of the experiment the cells were collected, and cytotoxicity was determined by cell counts, small number of cells were seeded for colonies and the cells (including cells from the media) were stained for Annexin V and 7AAD for apoptosis analysis.
# Apoptotic effect: Average of cell fraction of each marker staining (Annexin V and 7AAD) of at least 5 dishes from each treatment was calculated in Excel software. The averages from these repeats was calculated to averages and is presented in stacked bar graph using GraphPed software.
# [3] = 50 nM, + TTFields 150 kHz 1.0 V/cm
# [4] = 100 nM, + TTFields 150 kHz 1.0 V/cm
# [5] = 200 nM, + TTFields 150 kHz 1.0 V/cm
# [6] = 400 nM, + TTFields 150 kHz 1.0 V/cm
# [7] = FOLFOX experiment, 50 nM, + TTFields 150 kHz 1.0 V/cm
# [8] = FOLFOX experiment, 50 nM, no TTFields
# [9] = 25 nuM, + TTFields 150 kHz 1.0 V/cm
smiles,measurement,setting,value
O=C1[O][Pt]2([NH][C@@H]3CCCC[C@H]3[NH]2)[O]C1=O [Oxaliplatin],colonies count,AGS cells [1]; [3],70 % from control
same,colonies count,"AGS cells [1]; 50 nM, no TTFields",92 % from control
same,colonies count,AGS cells [1]; [4],61 % from control
same,colonies count,"AGS cells [1]; 100 nM, no TTFields",97 % from control
same,colonies count,AGS cells [1]; [5],43 % from control
same,colonies count,"AGS cells [1]; 200 nM, no TTFields",77 % from control
same,colonies count,AGS cells [1]; [6],18 % from control
same,colonies count,"AGS cells [1]; 400 nM, no TTFields",36 % from control
same,colonies count,AGS cells [1]; [7],64 % from control
same,colonies count,AGS cells [1]; [8],91 % from control
same,"colonies number (clonogenic effect and overall effect), drug + TTFields compared to drug alone",AGS cells [1]; Two-way ANOVA P<0.001,significant reduction in colonies number
same,colonies count,"KATO III cells; 50 nM, + TTFields 150 kHz 1.6 V/cm",46 % from control
same,colonies count,"KATO III cells; 50 nM, no TTFields",71 % from control
same,colonies count,"KATO III cells; 100 nM, + TTFields 150 kHz 1.6 V/cm",54 % from control
same,colonies count,"KATO III cells; 100 nM, no TTFields",74 % from control
same,colonies count,"KATO III cells; 200 nM, + TTFields 150 kHz 1.6 V/cm",42 % from control
same,colonies count,"KATO III cells; 200 nM, no TTFields",70 % from control
same,colonies count,"KATO III cells; 400 nM, + TTFields 150 kHz 1.6 V/cm",17 % from control
same,colonies count,"KATO III cells; 400 nM, no TTFields",23 % from control
same,"colonies number (clonogenic effect and overall effect), drug + TTFields compared to drug alone",KATO III cells; Two-way ANOVA P<0.001,significant reduction in colonies number
same,"elevation in percent of cells that undergo apoptosis, drug + TTFields compared to drug alone",AGS cells [2],higher
same,AnnV+ 7AAD+ cell fraction,"AGS cells [2]; 25 nM, no TTFields",4.00%
same,AnnV+ 7AAD− cell fraction,"AGS cells [2]; 25 nM, no TTFields",6.55%
same,AnnV− 7AAD+ cell fraction,"AGS cells [2]; 25 nM, no TTFields",1.35%
same,AnnV− 7AAD− cell fraction,"AGS cells [2]; 25 nM, no TTFields",88.10%
same,AnnV+ 7AAD+ cell fraction,AGS cells [2]; [3],11.65%
same,AnnV+ 7AAD− cell fraction,AGS cells [2]; [3],8.40%
same,AnnV− 7AAD+ cell fraction,AGS cells [2]; [3],3.10%
same,AnnV− 7AAD− cell fraction,AGS cells [2]; [3],76.90%
same,AnnV+ 7AAD+ cell fraction,"AGS cells [2]; 50 nM, no TTFields",4.83%
same,AnnV+ 7AAD− cell fraction,"AGS cells [2]; 50 nM, no TTFields",5.08%
same,AnnV− 7AAD+ cell fraction,"AGS cells [2]; 50 nM, no TTFields",2.08%
same,AnnV− 7AAD− cell fraction,"AGS cells [2]; 50 nM, no TTFields",88.00%
same,AnnV+ 7AAD+ cell fraction,AGS cells [2]; [4],12.78%
same,AnnV+ 7AAD− cell fraction,AGS cells [2]; [4],9.78%
same,AnnV− 7AAD+ cell fraction,AGS cells [2]; [4],2.23%
same,AnnV− 7AAD− cell fraction,AGS cells [2]; [4],75.20%
same,AnnV+ 7AAD+ cell fraction,"AGS cells [2]; 100 nM, no TTFields",7.00%
same,AnnV+ 7AAD− cell fraction,"AGS cells [2]; 100 nM, no TTFields",6.45%
same,AnnV− 7AAD+ cell fraction,"AGS cells [2]; 100 nM, no TTFields",1.63%
same,AnnV− 7AAD− cell fraction,"AGS cells [2]; 100 nM, no TTFields",84.93%
same,AnnV+ 7AAD+ cell fraction,AGS cells [2]; [5],14.54%
same,AnnV+ 7AAD− cell fraction,AGS cells [2]; [5],11.10%
same,AnnV− 7AAD+ cell fraction,AGS cells [2]; [5],3.78%
same,AnnV− 7AAD− cell fraction,AGS cells [2]; [5],70.58%
same,AnnV+ 7AAD+ cell fraction,AGS cells [2]; [6],17.83%
same,AnnV+ 7AAD− cell fraction,AGS cells [2]; [6],11.40%
same,AnnV− 7AAD+ cell fraction,AGS cells [2]; [6],4.50%
same,AnnV− 7AAD− cell fraction,AGS cells [2]; [6],66.23%
same,AnnV+ 7AAD+ cell fraction,"AGS cells [2]; 400 nM, no TTFields",10.87%
same,AnnV+ 7AAD− cell fraction,"AGS cells [2]; 400 nM, no TTFields",6.70%
same,AnnV− 7AAD+ cell fraction,"AGS cells [2]; 400 nM, no TTFields",1.83%
same,AnnV− 7AAD− cell fraction,"AGS cells [2]; 400 nM, no TTFields",80.60%
same,AnnV+ 7AAD+ cell fraction,AGS cells [2]; [9],9.00%
same,AnnV+ 7AAD− cell fraction,AGS cells [2]; [9],7.65%
same,AnnV− 7AAD+ cell fraction,AGS cells [2]; [9],0.75%
same,AnnV− 7AAD− cell fraction,AGS cells [2]; [9],82.60%
same,AnnV+ 7AAD+ cell fraction,"AGS cells [2]; 200 nuM, no TTFields",7.64%
same,AnnV+ 7AAD− cell fraction,"AGS cells [2]; 200 nuM, no TTFields",7.00%
same,AnnV− 7AAD+ cell fraction,"AGS cells [2]; 200 nuM, no TTFields",1.46%
same,AnnV− 7AAD− cell fraction,"AGS cells [2]; 200 nuM, no TTFields",83.92%
same,AnnV+ 7AAD+ cell fraction,AGS cells [2]; [7],10.3%
same,AnnV+ 7AAD− cell fraction,AGS cells [2]; [7],7.2%
same,AnnV− 7AAD+ cell fraction,AGS cells [2]; [7],4.4%
same,AnnV− 7AAD− cell fraction,AGS cells [2]; [7],78.2%
same,AnnV+ 7AAD+ cell fraction,AGS cells [2]; [8],4.6%
same,AnnV+ 7AAD− cell fraction,AGS cells [2]; [8],5.1%
same,AnnV− 7AAD+ cell fraction,AGS cells [2]; [8],0.2%
same,AnnV− 7AAD− cell fraction,AGS cells [2]; [8],90.1%
